In patent US20240246964A1 (Arbutus Biopharma Corporation, priority 2021, published 2024):

What follows are compounds tested against human PD-L1 (Homo sapiens (Human), UniProt Q9NZQ7) (assay: T cell activation luciferase reporter cell culture system (T Cell Activation Assay)). Conditions: luciferase reporter assay; PD-L1 aAPC/CHO-K1 cells with PD-1 effector Jurkat T cells.
Format: cell-based

Sequence of human PD-L1 (Q9NZQ7 19-290): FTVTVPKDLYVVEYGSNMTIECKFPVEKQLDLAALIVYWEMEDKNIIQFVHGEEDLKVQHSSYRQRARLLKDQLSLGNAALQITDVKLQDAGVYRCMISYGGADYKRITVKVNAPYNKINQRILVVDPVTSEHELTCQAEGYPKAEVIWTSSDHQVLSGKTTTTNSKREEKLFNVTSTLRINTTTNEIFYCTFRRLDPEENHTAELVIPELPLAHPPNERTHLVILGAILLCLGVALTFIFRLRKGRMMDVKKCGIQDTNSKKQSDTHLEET

Structure (SMILES)	EC50
COc1nc(-c2cccc(-c3ccnc(-c4cnc5c(CN6CCC(NC(C)=O)CC6)cn(C)c5c4)c3Cl)c2Cl)ccc1CNC[C@@H]1CCC(=O)N1 [Example 377, (S)—N-(1-((6-(3-chloro-4-(2-chloro-3-(6-methoxy-5-((((5-oxopyrrolidin-2-yl)methyl)amino)methyl)pyridin-2-yl)phenyl)pyridin-2-yl)-1-methyl-1H-pyrrolo[3,2-b]pyridin-3-yl)methyl)piperidin-4-yl)acetamide]	405 nM
COc1cc(-c2nccc(-c3cccc(NC(=O)c4ccc(C(=O)O)cn4)c3Cl)c2Cl)ccc1CNC[C@@H]1CCC(=O)N1 [Example 752, (S)-6-((2-Chloro-3-(3-chloro-2-(3-methoxy-4-((((5-oxopyrrolidin-2-yl)methyl)amino)methyl)phenyl)pyridin-4-yl)phenyl)carbamoyl)nicotinic acid]	1030 nM
COc1cc(-c2nccc(-c3cccc(-c4ccc(CNC[C@H](C)O)c(OC)n4)c3Cl)c2C)ccc1CNC[C@H](C)O [Example 274, (S)-1-(((6-(2-Chloro-3-(2-(4-((((S)-2-hydroxypropyl)amino)methyl)-3-methoxyphenyl)-3-methylpyridin-4-yl)-phenyl)-2-methoxypyridin-3-yl)-methyl)-amino)propan-2-ol]	114 nM
COc1cc(-c2nccc(-c3cccc(-c4ccc(CN5CCC(NC(C)=O)CC5)c(OC)n4)c3C)c2C)ccc1CN1CCC(NC(C)=O)CC1 [Example 461, N-(1-((6-(3-(2-(4-((4-Acetamidopiperidin-1-yl)methyl)-3-methoxyphenyl)-3-methylpyridin-4-yl)-2-methylphenyl)-2-methoxypyridin-3-yl)methyl)piperidin-4-yl)acetamide]	≥ 10000 nM
COc1nc(-c2cncc(-c3cccc(NC(=O)c4cn(C)c(=O)n(C)c4=O)c3Cl)c2Cl)ccc1CNC1CCN(C(C)=O)CC1 [Compound 723, N-(3-(5-(((1-Acetylpiperidin-4-yl)amino)methyl)-4′-chloro-6-methoxy-[2,3′-bipyridin]-5′-yl)-2-chlorophenyl)-1,3-dimethyl-2,4-dioxo-1,2,3,4-tetrahydropyrimidine-5-carboxamide]	1850 nM
COc1cc(-c2nccc(-c3cccc(-c4ccc(CNC[C@@H]5CCC(=O)N5)c(OC)n4)c3Cl)c2Cl)cc(F)c1CNC[C@H](C)O [Cmpd 80, (S)-5-((((6-(2-chloro-3-(3-chloro-2-(3-fluoro-4-((((S)-2-hydroxypropyl)amino)methyl)-5-methoxyphenyl)pyridin-4-yl)phenyl)-2-methoxypyridin-3-yl)methyl)amino)methyl)pyrrolidin-2-one]	46.2 nM
COc1cc(-c2nccc(-c3cccc(-c4ccc(CNC[C@@H]5CCC(=O)N5)c(OC)n4)c3Cl)c2Cl)ccc1CNCC(=O)O [Cmpd 107, (S)-(4-(3-chloro-4-(2-chloro-3-(6-methoxy-5-((((5-oxopyrrolidin-2-yl)methyl)amino)methyl)pyridin-2-yl)phenyl)pyridin-2-yl)-2-methoxybenzyl)glycine]	253 nM
COc1cc(-c2nccc(-c3cccc(-c4ccc([C@H](C)N)c(OC)n4)c3Cl)c2Cl)ccc1[C@H](C)N [Example 393, (S)-1-(6-(3-(2-(4-((S)-1-Aminoethyl)-3-methoxyphenyl)-3-chloropyridin-4-yl)-2-chlorophenyl)-2-methoxypyridin-3-yl)ethan-1-amine]	416 nM
COc1nc(-c2cccc(-c3ccnc(-c4cc(Cl)c5c(c4)CCN(C[C@@H]4CCC(=O)N4)C5)c3Cl)c2Cl)ccc1CNC[C@@H]1CCC(=O)N1 [Cmpd 67, (S)-5-((((6-(2-chloro-3-(3-chloro-2-(8-chloro-2-(((S)-5-oxopyrrolidin-2-yl)methyl)-1,2,3,4-tetrahydroisoquinolin-6-yl)pyridin-4-yl)phenyl)-2-methoxypyridin-3-yl)methyl)amino)methyl)pyrrolidin-2-one]	101 nM
COc1cc(-c2nccc(-c3cccc(-c4ccc(CNC[C@@H]5CCC(=O)N5)c(OC)n4)c3Cl)c2Cl)ccc1CN1CCC[C@H]1C(=O)OC(C)C [Cmpd 68, isopropyl (4-(3-chloro-4-(2-chloro-3-(6-methoxy-5-(((((S)-5-oxopyrrolidin-2-yl)methyl)amino)methyl)pyridin-2-yl)phenyl)pyridin-2-yl)-2-methoxybenzyl)-L-prolinate]	413 nM
COc1cc(-c2nccc(-c3cccc(-c4ccc(CN5CC6(CNC(=O)C6)C5)c(OC)n4)c3C#N)c2Cl)ccc1CN1CC2(CNC(=O)C2)C1 [Example 653, 2-(3-Chloro-2-(3-methoxy-4-((7-oxo-2,6-diazaspiro[3.4]octan-2-yl)methyl)phenyl)pyridin-4-yl)-6-(6-methoxy-5-((7-oxo-2,6-diazaspiro[3.4]octan-2-yl)methyl)pyridin-2-yl)benzonitrile]	208 nM

Second part, the compound after the results:

EC50	Structure (SMILES)
45.2 nM	COc1cc(-c2nccc(-c3cccc(-c4ccc(CNC5CCN(C(C)=O)CC5)c(OC)n4)c3Cl)c2Cl)ccc1CN1CCC[C@H](O)C1 [Example 507, (S)-1-(4-(((6-(2-Chloro-3-(3-chloro-2-(4-((3-hydroxypiperidin-1-yl)methyl)-3-methoxyphenyl)pyridin-4-yl)phenyl)-2-methoxypyridin-3-yl)methyl)amino)piperidin-1-yl)ethan-1-one]
29.1 nM	COc1cc(-c2nccc(-c3cccc(-c4ccc(CNC[C@@H]5CCC(=O)N5)c(OC)n4)c3Cl)c2Cl)cc2c1CN(C[C@H](C)O)CC2 [Cmpd 50, (S)-5-((((6-(2-chloro-3-(3-chloro-2-(2-((S)-2-hydroxypropyl)-8-methoxy-1,2,3,4-tetrahydroisoquinolin-6-yl)pyridin-4-yl)phenyl)-2-methoxypyridin-3-yl)methyl)amino)methyl)pyrrolidin-2-one]
16 nM	COc1cc(-c2nccc(-c3cccc(-c4ccc(CNC[C@@H]5CCC(=O)N5)c(OC)n4)c3Cl)c2Cl)ccc1CN(C)C[C@H](C)O [Cmpd 75, (S)-5-((((6-(2-chloro-3-(3-chloro-2-(4-((((S)-2-hydroxypropyl)(methyl)amino)methyl)-3-methoxyphenyl)pyridin-4-yl)phenyl)-2-methoxypyridin-3-yl)methyl)amino)methyl)pyrrolidin-2-one]
42.2 nM	COc1nc(-c2cccc(-c3ccnc(-c4ccc(CNC5CCN(C(C)=O)CC5)c(OC(F)F)c4)c3Cl)c2Cl)ccc1CN1CC2(C1)CN(C(C)=O)C2 [Example 690, 1-(4-((4-(4-(3-(5-((6-Acetyl-2,6-diazaspiro[3.3]heptan-2-yl)methyl)-6-methoxypyridin-2-yl)-2-chlorophenyl)-3-chloropyridin-2-yl)-2-(difluoromethoxy)benzyl)amino)piperidin-1-yl)ethan-1-one]
17.6 nM	COc1cc(-c2nccc(-c3cccc(-c4ccc(CNC5CCN(C(C)=O)CC5)c(OC)n4)c3Cl)c2Cl)ccc1CNC1CCOCC1 [Example 392, 1-(4-(((6-(2-chloro-3-(3-chloro-2-(3-methoxy-4-(((tetrahydro-2H-pyran-4-yl)amino)methyl)phenyl)pyridin-4-yl)phenyl)-2-methoxypyridin-3-yl)methyl)amino)piperidin-1-yl)ethan-1-one]
